Laboratory results: the supplement of paper PMC10307832

Legend:
Assay in all cases: relative viability (nuclei count vs DMSO), 5 days (fraction); higher = more cells survive
[1] = compound: CC1CC(=O)N(C2=CN=C(N=C2N1C3CCCC3)NC4=C(C=C(C=C4)C(=O)NC5CCN(CC5)C)OC)C [NPK76-II-72-1] + CC(C)C[C@H](NC(=O)[C@H](Cc1ccccc1)NC(=O)c1cnccn1)B(O)O [Bortezomib] (partner 0.002 µM)
Summary of the method: (§1)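 Cells from lung cancer lines were seeded into 1536-well plates and, one day later, dosed by pin tool. Treatments were either a single drug or a fixed dose of an anchor drug with five library-drug doses (not always all listed) in √10 steps. After 5 days, nuclei were stained in a one-step fixation (final 0.05% Triton X-100, 1% formaldehyde, 1 ug/ml Hoechst) and counted on 4× images, and relative viability is the treated-to-vehicle nuclei ratio, as the median of duplicate plates.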

[2] = compound: CC[C@@H]1C(=O)N(C)c2cnc(Nc3ccc(C(=O)NC4CCN(C)CC4)cc3OC)nc2N1C1CCCC1 [BI-2536] + Cc1nc(Nc2ncc(C(=O)Nc3c(C)cccc3Cl)s2)cc(N2CCN(CCO)CC2)n1 [Dasatinib] (partner 0.075 µM)
Summary of the method: as §1

[3] = compound: CC1CC(=O)N(C2=CN=C(N=C2N1C3CCCC3)NC4=C(C=C(C=C4)C(=O)NC5CCN(CC5)C)OC)C [NPK76-II-72-1] + Nc1ncn([C@H]2C[C@H](O)[C@@H](CO)O2)c(=O)n1 [Decitabine] (partner 2 µM)
Summary of the method: as §1

[4] = compound: CC[C@@H]1C(=O)N(C)c2cnc(Nc3ccc(C(=O)NC4CCN(C)CC4)cc3OC)nc2N1C1CCCC1 [BI-2536] + CCNC(=O)c1noc(-c2cc(C(C)C)c(O)cc2O)c1-c1ccc(CN2CCOCC2)cc1 [Luminespib] (partner 0.01 µM)
Summary of the method: as §1

Cell Line | relative viability ([1]; first compound 0.01 µM) | relative viability ([1]; first compound 0.03162 µM) | relative viability ([1]; first compound 0.1 µM) | relative viability ([1]; first compound 0.3162 µM) | relative viability ([1]; first compound 1 µM) | relative viability ([2]; first compound 0.01 µM) | relative viability ([2]; first compound 0.03162 µM) | relative viability ([2]; first compound 0.1 µM) | relative viability ([2]; first compound 0.3162 µM) | relative viability ([2]; first compound 1 µM) | relative viability ([3]; first compound 0.01 µM) | relative viability ([3]; first compound 0.03162 µM) | relative viability ([3]; first compound 0.1 µM) | relative viability ([3]; first compound 0.3162 µM) | relative viability ([3]; first compound 1 µM) | relative viability ([4]; first compound 0.01 µM) | relative viability ([4]; first compound 0.03162 µM) | relative viability ([4]; first compound 0.1 µM) | relative viability ([4]; first compound 0.3162 µM) | relative viability ([4]; first compound 1 µM)
201T | 1.07 | 1.14 | 1.08 | 1.17 | 1.1 | 0.579 | 0.57 | 0.547 | 0.402 | 0.285 | 0.818 | 0.87 | 0.906 | 0.887 | 0.886 | 1.02 | 0.999 | 1.05 | 0.349 | 0.318
A549 |  |  |  |  |  |  |  |  |  |  | 0.429 | 0.332 | 0.327 | 0.233 | 0.312 |  |  |  |  | 
A-427 | 0.935 | 0.977 | 1.06 | 0.932 | 1.02 | 0.579 | 0.752 | 0.44 | 0.12 | 0.118 | 0.547 | 0.592 | 0.611 | 0.541 | 0.574 | 0.841 | 0.829 | 0.525 | 0.144 | 0.137
ABC-1 | 0.272 | 0.306 | 0.299 | 0.254 | 0.358 | 0.519 | 0.634 | 0.211 | 0.31 | 0.231 | 0.94 | 1 | 0.859 | 1.13 | 0.887 | 0.54 | 0.293 |  | 0.28 | 0.39
BEN | 0.773 | 0.659 | 0.763 | 0.466 | 0.875 | 0.34 | 0.367 | 0.248 | 0.184 | 0.199 | 0.661 | 0.713 | 0.671 | 0.743 | 0.76 | 0.486 | 0.611 | 0.282 | 0.158 | 0.217
CAL-12T | 0.874 | 0.832 | 0.872 |  | 1.01 | 0.387 | 0.287 | 0.0978 | 0.121 | 0.0997 |  |  |  |  |  | 0.774 | 0.229 | 0.173 | 0.124 | 0.202
COR-L23 | 0.942 | 1 | 0.889 | 0.961 | 0.99 | 0.459 | 0.491 | 0.117 | 0.107 | 0.0593 | 0.423 | 0.473 | 0.469 | 0.384 | 0.454 | 0.668 | 0.705 | 0.171 | 0.106 | 0.122
COR-L 105 | 0.699 | 0.982 | 0.848 | 0.672 | 1.12 | 0.359 | 0.312 | 0.212 | 0.197 | 0.148 | 0.622 | 0.65 | 0.448 | 0.616 | 0.69 | 0.882 | 0.514 | 0.434 | 0.325 | 0.327
Calu-6 | 0.992 | 1.03 | 1.16 | 0.894 | 1.06 |  |  |  |  |  |  |  |  |  |  |  |  |  |  | 
ChaGo-K-1 | 0.988 | 0.945 | 0.994 | 0.744 | 1.01 | 0.594 | 0.667 | 0.446 | 0.194 | 0.197 | 0.487 | 0.52 | 0.475 | 0.512 | 0.501 | 0.691 | 0.615 | 0.529 | 0.16 | 0.178
